Entries after “also recorded” stand apart in the source; their conditions may differ.
Experiments:
[1] = target: binding of cleaved EboV GPΔTM to NPC1 membranes (Mus musculus, UniProt O35604)
[2] = system: VSV particles pseudotyped with EboV Zaire GP; format: cell-based, Ebola virus Zaire
NPC1 = target: T1, NPC1 (Homo sapiens, UniProt O15118); format: binding
T1 construct: expressed in transfected cells; host or cells: CHO/NPC1-1 (CHOhNPC1) cells; 15,000 g membrane pellet
T1 sequence (O15118 23-1278): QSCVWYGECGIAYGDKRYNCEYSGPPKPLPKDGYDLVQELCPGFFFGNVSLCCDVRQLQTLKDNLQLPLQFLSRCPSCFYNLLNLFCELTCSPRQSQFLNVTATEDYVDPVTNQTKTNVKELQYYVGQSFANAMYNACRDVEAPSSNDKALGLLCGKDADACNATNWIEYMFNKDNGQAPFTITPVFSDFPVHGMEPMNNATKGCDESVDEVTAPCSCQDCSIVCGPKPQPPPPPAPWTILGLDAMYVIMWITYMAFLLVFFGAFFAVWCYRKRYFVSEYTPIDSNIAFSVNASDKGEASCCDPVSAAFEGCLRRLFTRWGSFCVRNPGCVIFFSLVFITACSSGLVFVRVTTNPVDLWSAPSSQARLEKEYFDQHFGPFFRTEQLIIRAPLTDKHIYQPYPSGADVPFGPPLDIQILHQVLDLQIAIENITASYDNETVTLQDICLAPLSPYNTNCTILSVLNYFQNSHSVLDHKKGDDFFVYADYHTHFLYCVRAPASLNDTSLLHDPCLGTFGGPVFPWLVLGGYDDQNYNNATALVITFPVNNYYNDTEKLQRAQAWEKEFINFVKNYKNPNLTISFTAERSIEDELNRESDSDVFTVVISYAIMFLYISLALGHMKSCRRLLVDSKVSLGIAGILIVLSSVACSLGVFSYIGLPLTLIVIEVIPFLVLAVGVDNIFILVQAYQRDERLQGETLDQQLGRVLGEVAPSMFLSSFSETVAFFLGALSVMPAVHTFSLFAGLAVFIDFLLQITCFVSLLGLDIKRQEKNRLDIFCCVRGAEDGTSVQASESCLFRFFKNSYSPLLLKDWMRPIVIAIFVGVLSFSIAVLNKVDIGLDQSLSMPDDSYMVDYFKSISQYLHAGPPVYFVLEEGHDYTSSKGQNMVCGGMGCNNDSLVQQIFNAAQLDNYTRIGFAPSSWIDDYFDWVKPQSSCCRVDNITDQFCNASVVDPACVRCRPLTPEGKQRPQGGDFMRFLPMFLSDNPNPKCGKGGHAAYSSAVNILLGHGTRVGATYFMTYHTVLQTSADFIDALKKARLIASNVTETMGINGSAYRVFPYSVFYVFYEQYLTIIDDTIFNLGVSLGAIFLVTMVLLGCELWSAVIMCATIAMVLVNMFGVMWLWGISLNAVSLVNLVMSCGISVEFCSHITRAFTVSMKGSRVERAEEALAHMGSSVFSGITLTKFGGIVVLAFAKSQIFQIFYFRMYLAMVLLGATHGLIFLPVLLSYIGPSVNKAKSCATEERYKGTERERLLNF

EboV = system: EboV; design: species or system Ebola virus
[3] = system: VSV particles pseudotyped with VSV G; format: cell-based, vesicular stomatitis virus
EBOV Zaire-1995 = format: cell-based, Ebola virus Zaire; conditions: 96 h
cathepsin B = cathepsin B (Homo sapiens, UniProt P07858); format: biochemical
[4] = system: thermolysin-cleaved VSV EboV GP particles; format: cell-based, Ebola virus Zaire
HeLa cells = format: cell-based, human
[5] = system: Ebola virus Zaire-Maying a encoding GFP; format: cell-based

Sequence of binding of cleaved EboV GPΔTM to NPC1 membranes (O35604 23-1277 limits assumed, stated change not applied): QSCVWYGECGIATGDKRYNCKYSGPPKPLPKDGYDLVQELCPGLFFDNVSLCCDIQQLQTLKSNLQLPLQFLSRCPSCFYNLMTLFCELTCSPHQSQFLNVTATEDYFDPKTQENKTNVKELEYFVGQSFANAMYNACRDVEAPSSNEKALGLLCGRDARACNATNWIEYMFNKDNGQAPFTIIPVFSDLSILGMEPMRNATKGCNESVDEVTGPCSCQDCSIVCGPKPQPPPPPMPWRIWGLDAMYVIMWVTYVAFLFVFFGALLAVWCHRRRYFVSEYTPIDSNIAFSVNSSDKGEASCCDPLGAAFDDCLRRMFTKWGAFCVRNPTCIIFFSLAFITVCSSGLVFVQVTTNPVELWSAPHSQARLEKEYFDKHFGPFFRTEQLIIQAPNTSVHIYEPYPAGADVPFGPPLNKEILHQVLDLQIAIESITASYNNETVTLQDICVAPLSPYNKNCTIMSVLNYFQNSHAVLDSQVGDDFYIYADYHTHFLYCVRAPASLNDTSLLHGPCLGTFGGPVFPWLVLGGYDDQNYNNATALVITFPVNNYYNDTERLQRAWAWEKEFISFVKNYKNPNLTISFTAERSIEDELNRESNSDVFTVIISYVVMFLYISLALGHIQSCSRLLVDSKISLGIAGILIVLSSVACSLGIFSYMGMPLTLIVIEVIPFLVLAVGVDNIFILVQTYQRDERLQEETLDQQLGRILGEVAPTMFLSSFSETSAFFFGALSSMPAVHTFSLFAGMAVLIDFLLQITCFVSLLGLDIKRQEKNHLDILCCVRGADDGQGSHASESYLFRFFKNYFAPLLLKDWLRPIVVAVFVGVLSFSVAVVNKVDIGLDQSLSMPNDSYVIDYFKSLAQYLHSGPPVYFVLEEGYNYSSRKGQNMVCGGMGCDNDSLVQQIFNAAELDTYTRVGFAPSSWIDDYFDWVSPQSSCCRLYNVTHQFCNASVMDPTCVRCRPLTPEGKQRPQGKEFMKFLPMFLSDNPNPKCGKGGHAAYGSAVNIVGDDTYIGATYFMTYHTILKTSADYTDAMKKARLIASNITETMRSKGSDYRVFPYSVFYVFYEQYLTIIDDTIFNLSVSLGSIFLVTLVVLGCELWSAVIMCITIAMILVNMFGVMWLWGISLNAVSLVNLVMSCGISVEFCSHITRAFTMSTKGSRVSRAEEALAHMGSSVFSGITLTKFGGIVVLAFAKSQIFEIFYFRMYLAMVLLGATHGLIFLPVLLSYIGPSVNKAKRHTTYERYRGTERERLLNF

## CCN(CC)CCO[C@H]1CC[C@@]2(C)C(=CC[C@@H]3[C@@H]2CC[C@]2(C)C(=O)CC[C@@H]32)C1 [U18666A, reference compound]
[1]
  inhibition of binding of cleaved EboV GPΔTM to NPC1 membranes: does not inhibit binding

## C#Cc1ccc(COc2ccc(N=[N+]=[N-])cc2CN2CCN(C(=O)CNC(=O)CC34CC5CC(CC(C5)C3)C4)CC2)cc1 [compound 3.105, 2-((3r,5r,7r)-adamantan-1-yl)-N-(2-(4-(5-azido-2-((4-ethynylbenzyl)oxy)benzyl)piperazin-1-yl)-2-oxoethyl)acetamide]
[2]
  inhibition of EboV GP-dependent infection of Vero cells: has anti-EboV activity
NPC1
  cross-linking to NPC1: cross-linked

## CCCCc1oc2ccccc2c1C(=O)c1cc(I)c(OCCN(CC)CC)c(I)c1 [amiodarone]
EboV
  anti-EboV activity: weak anti-EboV activity

## O=C(CC12CC3CC(CC(C3)C1)C2)NCC(=O)N1CCN(Cc2ccccc2)CC1 [3.0, 2-((3r,5r,7r)-adamantan-1-yl)-N-(2-(4-benzylpiperazin-1-yl)-2-oxoethyl)acetamide]
[2]
  inhibition of EboV GP infection in the screen: more than 80%
  inhibition of EboV GP-dependent infection of Vero cells: inhibits infection
[3]
  inhibition of VSV G-dependent infection of Vero cells: not
EBOV Zaire-1995
  reduction of EboV growth on Vero cells: > 99%
Cathepsin B
  effect on cathepsin B activity: no effect was observed
[4]
  inhibition of infection by thermolysin-treated VSV EboV particles: inhibited infection
HeLa cells
  cholesterol uptake from LE/LY into cells: inhibit cholesterol uptake
  induction of filipin-labelled cytoplasmic vacuoles: developed cytoplasmic vacuoles
[1]
  inhibition of binding of cleaved EboV GPΔTM to NPC1 membranes: inhibited binding

## COC(=O)c1ccc(COc2ccccc2CN2CCN(C(=O)CNC(=O)CC34CC5CC(CC(C5)C3)C4)CC2)cc1 [compound 3.48, methyl 4-((2-((4-(2-(2-((3r,5r,7r)-adamantan-1-yl)acetamido)acetyl)piperazin-1-yl)methyl)phenoxy)methyl)benzoate]
[2]
  potency as measured by a single cycle of EboV GP-dependent infection, relative to 3.0: increased the potency
[5]
  efficacy as measured by growth of EboV on Vero cells, relative to 3.0: increased
Cathepsin B
  effect on cathepsin B activity: no effect was observed
[4]
  inhibition of infection by thermolysin-treated VSV EboV particles: inhibited infection
HeLa cells
  cholesterol uptake from LE/LY into cells: inhibit cholesterol uptake
  induction of filipin-labelled cytoplasmic vacuoles: developed cytoplasmic vacuoles
NPC1
  inhibition of cross-linking of 3.105 to NPC1: inhibited
[1]
  inhibition of binding of cleaved EboV GPΔTM to NPC1 membranes: blocked; also recorded: inhibited binding

## CC/C(=C(\c1ccccc1)c1ccc(OCCN(C)C)cc1)c1ccccc1 [tamoxifen]
EboV
  anti-EboV activity: weak anti-EboV activity

## COc1ccc([C@@H]2Sc3ccccc3N(CCN(C)C)C(=O)[C@@H]2OC(C)=O)cc1 [diltiazen]
EboV
  anti-EboV activity: weak anti-EboV activity
